Like-named read-outs stand apart in the source and are kept apart here.
Tests used:
[1] = system: HeLa Human cervical cancer cells; assay: human tumor xenograft in SCID mice, tumor growth; assay type: in vivo; conditions: for T/C (tumor growth inhibition index): 100 mg/kg daily oral upto 15 days; for RTV (relative tumor volume): 100 mg/kg p.o. daily up to 15 days
Experimental: (§1) The in vivo efficacy studies were performed using human tumor xenografts in SCID mice. Human cervical cancer cells (HeLa) were injected subcutaneously (1×10^7 cells in 100 μl HBSS medium) on the right flank of each mouse. Tumor bearing mice were divided randomly into treatment groups and the treatment schedules began on day 7 of the xenograft. The test compound (S009-0131) was administered orally to each mouse at a daily dose of 100 mg/kg body weight, for 15 days. The standard anti-cancer drug Adriamycin (ADR) was used as ‘positive’ control and given to each mouse as an i.v. dose of 2 mg/kg body weight, Q7d×3 ([…]). The group of vehicle treated animals served as ‘negative’ control.
(§2) The tumor volume, body weight and signs of overt toxicity were monitored and recorded for the entire duration of the experiment (60 days). Tumor volumes were calculated using the formula (a×b2)/2, where a, b are two longest perpendicular diameters. Tumor growth was expressed in terms of relative tumor volume (RTV) which is the ratio of tumor volume on a particular day to the tumor volume on day 1 of the study. Tumor growth inhibition index (T/C) was calculated as follows: T/C=Average RTV of test group mice/Average RTV of control group mice.

[2] = system: MCF-7 (breast adenocarcinoma); assay: sulforhodamine B cell cytotoxicity assay, MCF-7; assay type: cell-based; conditions: Homo sapiens, MCF7; Table 2; SRB assay, 48 h of exposure
Experimental: (§3) The human cancer cell lines—KB (oral squamous cell carcinoma). C33A (cervical carcinoma), MCF-7 (breast adenocarcinoma), A549 (lung carcinoma) and mouse embryo fibroblast (NIH3T3) were obtained from American Type Culture Collection (ATCC), USA. These cells were grown in recommended media supplemented with 10% FBS, 50 μg/mL gentamycin and 2.5 μg/mL amphotericin B in a 5% CO2 humidified atmosphere at 37° C. Cells below 15 passage level were used for this study. A colorimetric sulforhodamine B assay was used for the measurement of cell cytotoxicity. 1×10^4 cells (in 180 μL) were added to each well of 96-well plate and incubated overnight to allow for cell attachment. Cells were then treated with serial two-fold dilutions of test compounds (100 to 1.6 μM) and untreated cells receiving the same volume of medium served as control. After 48 h of exposure, cells were fixed with ice-cold 50% TCA, stained with 0.4% (w/v) SRB in 1% acetic acid, washed and air dried. Bound dye was dissolved in 150 μL of 10 mM tris base. The plates were read at 540 nm absorbance on plate reader (Polarstar Galaxy, BMG, Germany). The cytotoxic effects of compounds were calculated as % inhibition in cell growth as per the formula […].

[3] = animal weight and overt toxicity in the xenograft study; assay type: in vivo, SCID mice; conditions: for Average Animal weight: 100 mg/kg daily oral upto 15 days
Experimental: as §1, §2

[4] = system: A549 (lung carcinoma); assay: sulforhodamine B cell cytotoxicity assay, A549; assay type: cell-based; conditions: Homo sapiens, Table 2, SRB assay, 48 h of exposure
Experimental: as §3

[5] = system: mouse embryo fibroblast (NIH3T3); assay: sulforhodamine B cell cytotoxicity assay, NIH3T3 non-cancer cells; assay type: cell-based
Experimental: as §3

[6] = system: KB (oral squamous cell carcinoma); assay: sulforhodamine B cell cytotoxicity assay, KB; assay type: cell-based; conditions: Homo sapiens; Table 2; SRB assay, 48 h of exposure
Experimental: as §3

[7] = system: human cancer cell lines; assay: in vitro anticancer activity, cell line panel (cell line not specified); assay type: cell-based; conditions: poor activity or lack of activity against other cell lines
Experimental: as §3

[8] = system: C33A (cervical carcinoma); assay: sulforhodamine B cell cytotoxicity assay, C33A; assay type: cell-based, human; conditions: for IC50: Homo sapiens, C-33-A
Experimental: as §3

## CCOC(=O)c1cc2cc(C=CC(=O)c3ccc(C)cc3)cc(C(C)CC)c2oc1=O (stereo not shown) [Example S009-0131, Ethyl 8-sec-butyl-2-oxo-6-(3-oxo-3-p-tolylprop-1-enyl)-2H-chromene-3-carboxylate]
[1]; HeLa xenograft, SCID mice
  activity compared with standard drug adriamycin: somewhat better than that of the standard drug adriamycin
[1]; day 1
  T/C (tumor growth inhibition index): 1
  RTV (relative tumor volume): 1
[1]; day 5
  T/C (tumor growth inhibition index): 0.58
  RTV (relative tumor volume): 0.76
[1]; day 9
  T/C (tumor growth inhibition index): 0.48
  RTV (relative tumor volume): 0.79
[1]; day 12
  T/C (tumor growth inhibition index): 0.61
  RTV (relative tumor volume): 1.21
[1]; day 15
  T/C (tumor growth inhibition index): 0.39
  RTV (relative tumor volume): 1.28
[1]; day 19
  T/C (tumor growth inhibition index): 0.28
  RTV (relative tumor volume): 1.01
[1]; day 22
  T/C (tumor growth inhibition index): 0.33
  RTV (relative tumor volume): 1.73
[1]; day 25
  T/C (tumor growth inhibition index): 0.29
  RTV (relative tumor volume): 1.82
[1]; day 29
  T/C (tumor growth inhibition index): 0.33
  RTV (relative tumor volume): 2.39
[1]; day 33
  T/C (tumor growth inhibition index): 0.42
  RTV (relative tumor volume): 4.20
[1]; day 37
  T/C (tumor growth inhibition index): 0.42
[1]; day 41
  T/C (tumor growth inhibition index): 0.44
[1]; day 44
  T/C (tumor growth inhibition index): 0.45
[1]; day 51
  T/C (tumor growth inhibition index): 0.38
[1]; oral administration, mice bearing HeLa cells
  tumor volumes relative to the vehicle control: significant reduction of tumor volumes
[2]
  IC50: 81.1 µM
[3]; day 1
  Average Animal weight: 24.2 grams
[3]; day 5
  Average Animal weight: 24.2 grams
[3]; day 9
  Average Animal weight: 23.5 grams
[3]; day 12
  Average Animal weight: 18.5 grams
[3]; day 15
  Average Animal weight: 22.6 grams
[3]; day 19
  Average Animal weight: 22.4 grams
[3]; day 22
  Average Animal weight: 23.0 grams
[3]; day 25
  Average Animal weight: 23.2 grams
[3]; day 29
  Average Animal weight: 23.6 grams
[3]; day 33
  Average Animal weight: 23.3 grams
[3]; day 37
  Average Animal weight: 23.0 grams
[3]; day 41
  Average Animal weight: 23.4 grams
[3]; day 44
  Average Animal weight: 23.8 grams
[3]; day 51
  Average Animal weight: 23.4 grams
[3]; during the period of the study
  toxicity to the animals (loss of weight): apparently non-toxic
[4]
  IC50: 32.8 µM
[5]; Table 1, SRB assay, 48 h of exposure, read-out: IC50 NIH3T3 (mouse fibroblast)
  IC50: > 150 µM
[5]; Table 2, SRB assay, 48 h of exposure, read-out: IC50 NIH3T3 (Non-cancer, fibroblast)
  IC50: > 150 µM
[5]; read-out: IC50 fibroblast cells NIH3T3
  IC50: > 150 µM
[6]
  IC50: 18 µM
[7]
  selectivity among cell lines: most selective
[8]; Table 1, SRB assay, 48 h of exposure, read-out: IC50 C33A (cervical cancer)
  IC50: 3.59 µM
[8]; Table 2, SRB assay, 48 h of exposure, read-out: IC50 C33A (Cervical)
  IC50: 3.59 µM
[8]; read-out: IC50 against the C33A cell line
  IC50: 3.59 µM
[8]; in words
  activity against cervical cancer (C33A): highly active
